From ChEMBL document CHEMBL5465560, “Selectivity Literature for EUbOPEN Chemogenomic Library” (2024)

Columns and labels:
[1] = target: Phosphatidylinositol 4,5-bisphosphate 3-kinase catalytic subunit alpha isoform (Homo sapiens) (UniProt P42336); assay: Selectivity interaction (Adapta Assay) EUB0001632a PIK3CA; conditions: at 10 µM
[2] = target: Serine/threonine-protein kinase MARK2 (Homo sapiens) (UniProt Q7KZI7); assay: Selectivity interaction (ActivX KiNativ screen (kinase selectivity in THP-1 cell lysates)) EUB0000639a MARK2; type: subcellular; conditions: lysate, at 0.01 µM
Serine/threonine-protein kinase MARK2 (Homo sapiens), sequence (Q7KZI7 whole entry): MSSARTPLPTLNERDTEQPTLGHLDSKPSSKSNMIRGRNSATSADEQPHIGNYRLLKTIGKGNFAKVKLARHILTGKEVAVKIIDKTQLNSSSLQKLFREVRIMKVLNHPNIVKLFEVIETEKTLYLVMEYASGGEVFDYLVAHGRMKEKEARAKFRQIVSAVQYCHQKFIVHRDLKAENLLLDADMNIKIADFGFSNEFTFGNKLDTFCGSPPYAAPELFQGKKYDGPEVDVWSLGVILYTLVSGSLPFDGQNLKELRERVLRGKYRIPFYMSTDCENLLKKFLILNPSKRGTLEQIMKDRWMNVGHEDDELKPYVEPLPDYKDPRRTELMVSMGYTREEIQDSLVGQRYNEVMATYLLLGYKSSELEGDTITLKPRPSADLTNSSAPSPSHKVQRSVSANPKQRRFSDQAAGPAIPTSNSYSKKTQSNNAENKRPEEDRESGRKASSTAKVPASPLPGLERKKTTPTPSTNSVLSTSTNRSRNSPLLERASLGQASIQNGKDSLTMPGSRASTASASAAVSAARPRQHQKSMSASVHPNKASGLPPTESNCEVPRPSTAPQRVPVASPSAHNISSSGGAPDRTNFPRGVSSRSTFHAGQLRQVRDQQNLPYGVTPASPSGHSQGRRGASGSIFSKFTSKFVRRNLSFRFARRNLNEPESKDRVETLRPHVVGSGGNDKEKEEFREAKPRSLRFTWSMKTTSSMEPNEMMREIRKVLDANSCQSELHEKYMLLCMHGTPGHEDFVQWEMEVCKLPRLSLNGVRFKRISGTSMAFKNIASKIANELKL

[3] = target: Misshapen-like kinase 1 (Homo sapiens, UniProt Q8N4C8); assay: Selectivity interaction (KinomeScan (DiscoverX)) EUB0000695a MINK1; conditions: at 100 nM
Misshapen-like kinase 1, sequence (Q8N4C8 whole entry, looked up): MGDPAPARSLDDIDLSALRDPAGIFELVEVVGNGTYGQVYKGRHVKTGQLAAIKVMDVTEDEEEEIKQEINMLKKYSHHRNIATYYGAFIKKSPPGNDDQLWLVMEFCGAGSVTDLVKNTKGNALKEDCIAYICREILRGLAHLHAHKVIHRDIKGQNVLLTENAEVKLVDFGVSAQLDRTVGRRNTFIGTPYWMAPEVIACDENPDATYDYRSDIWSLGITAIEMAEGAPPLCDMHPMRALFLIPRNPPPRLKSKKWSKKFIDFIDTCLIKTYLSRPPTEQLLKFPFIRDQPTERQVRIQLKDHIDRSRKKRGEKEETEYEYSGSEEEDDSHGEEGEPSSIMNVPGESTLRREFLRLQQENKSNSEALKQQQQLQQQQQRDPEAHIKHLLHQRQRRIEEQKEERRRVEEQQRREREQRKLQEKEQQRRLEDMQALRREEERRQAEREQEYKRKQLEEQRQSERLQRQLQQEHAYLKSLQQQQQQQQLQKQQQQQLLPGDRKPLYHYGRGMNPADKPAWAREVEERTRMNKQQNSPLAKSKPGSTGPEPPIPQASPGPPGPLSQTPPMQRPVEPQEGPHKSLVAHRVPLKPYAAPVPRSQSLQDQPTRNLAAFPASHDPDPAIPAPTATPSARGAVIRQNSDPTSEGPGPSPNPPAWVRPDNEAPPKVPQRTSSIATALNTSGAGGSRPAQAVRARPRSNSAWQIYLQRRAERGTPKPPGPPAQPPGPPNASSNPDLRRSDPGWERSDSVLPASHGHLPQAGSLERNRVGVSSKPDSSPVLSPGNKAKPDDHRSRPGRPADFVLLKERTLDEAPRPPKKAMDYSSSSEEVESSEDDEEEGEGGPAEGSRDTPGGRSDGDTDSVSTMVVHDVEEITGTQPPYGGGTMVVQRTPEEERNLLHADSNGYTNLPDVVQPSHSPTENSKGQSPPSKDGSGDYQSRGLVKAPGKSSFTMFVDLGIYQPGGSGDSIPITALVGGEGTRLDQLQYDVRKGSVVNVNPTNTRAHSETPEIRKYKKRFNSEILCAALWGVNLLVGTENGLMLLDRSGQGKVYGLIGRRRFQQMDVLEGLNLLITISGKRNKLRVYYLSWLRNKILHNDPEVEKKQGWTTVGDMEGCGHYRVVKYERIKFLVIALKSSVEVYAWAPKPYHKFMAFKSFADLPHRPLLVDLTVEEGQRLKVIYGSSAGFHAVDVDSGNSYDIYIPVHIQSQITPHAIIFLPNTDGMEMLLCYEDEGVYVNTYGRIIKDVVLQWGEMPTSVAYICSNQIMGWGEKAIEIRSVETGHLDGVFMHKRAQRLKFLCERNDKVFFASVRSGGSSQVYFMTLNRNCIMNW

[4] = Selectivity interaction (KinomeScan (DiscoverX)) EUB0000595a CDPK1; conditions: at 10 µM
[5] = target: Interferon-induced, double-stranded RNA-activated protein kinase (Homo sapiens) (UniProt P19525); assay: Selectivity interaction (KinomeScan (DiscoverX)) EUB0001049a EIF2AK2; conditions: at 1 µM
[6] = target: RAC-gamma serine/threonine-protein kinase (Homo sapiens, UniProt Q9Y243); assay: Selectivity interaction (Kinase screening (Nanosyn)) EUB0000604a AKT3
[7] = target: Casein kinase I isoform delta (Homo sapiens, UniProt P48730); assay: Selectivity interaction (Millipore kinase profiler) EUB0000124b CSNK1D; conditions: at 10 µM
Casein kinase I isoform delta, sequence (P48730 whole entry, looked up, canonical isoform): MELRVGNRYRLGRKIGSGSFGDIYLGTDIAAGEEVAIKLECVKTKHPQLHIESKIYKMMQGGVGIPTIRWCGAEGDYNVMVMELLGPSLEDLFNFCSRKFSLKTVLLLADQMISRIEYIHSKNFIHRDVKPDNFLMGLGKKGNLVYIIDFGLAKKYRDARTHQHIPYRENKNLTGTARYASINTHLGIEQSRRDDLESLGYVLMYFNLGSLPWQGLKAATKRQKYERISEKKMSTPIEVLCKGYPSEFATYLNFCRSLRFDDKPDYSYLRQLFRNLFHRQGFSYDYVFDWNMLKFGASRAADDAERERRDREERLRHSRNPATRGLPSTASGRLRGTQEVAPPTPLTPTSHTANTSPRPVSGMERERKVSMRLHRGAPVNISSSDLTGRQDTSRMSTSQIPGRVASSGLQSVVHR

[8] = system: Epidermal growth factor receptor (Homo sapiens), P00533 [UNDEFINED MUTATION]; assay: Selectivity interaction (Ambit KINOMEscan and KiNATiv profiling in Jurkat cells) EUB0000090b EGFR; type: cell-based; conditions: at 1 µM
Epidermal growth factor receptor (Homo sapiens), P00533 [UNDEFINED MUTATION], sequence (P00533 whole entry, looked up, change not shown): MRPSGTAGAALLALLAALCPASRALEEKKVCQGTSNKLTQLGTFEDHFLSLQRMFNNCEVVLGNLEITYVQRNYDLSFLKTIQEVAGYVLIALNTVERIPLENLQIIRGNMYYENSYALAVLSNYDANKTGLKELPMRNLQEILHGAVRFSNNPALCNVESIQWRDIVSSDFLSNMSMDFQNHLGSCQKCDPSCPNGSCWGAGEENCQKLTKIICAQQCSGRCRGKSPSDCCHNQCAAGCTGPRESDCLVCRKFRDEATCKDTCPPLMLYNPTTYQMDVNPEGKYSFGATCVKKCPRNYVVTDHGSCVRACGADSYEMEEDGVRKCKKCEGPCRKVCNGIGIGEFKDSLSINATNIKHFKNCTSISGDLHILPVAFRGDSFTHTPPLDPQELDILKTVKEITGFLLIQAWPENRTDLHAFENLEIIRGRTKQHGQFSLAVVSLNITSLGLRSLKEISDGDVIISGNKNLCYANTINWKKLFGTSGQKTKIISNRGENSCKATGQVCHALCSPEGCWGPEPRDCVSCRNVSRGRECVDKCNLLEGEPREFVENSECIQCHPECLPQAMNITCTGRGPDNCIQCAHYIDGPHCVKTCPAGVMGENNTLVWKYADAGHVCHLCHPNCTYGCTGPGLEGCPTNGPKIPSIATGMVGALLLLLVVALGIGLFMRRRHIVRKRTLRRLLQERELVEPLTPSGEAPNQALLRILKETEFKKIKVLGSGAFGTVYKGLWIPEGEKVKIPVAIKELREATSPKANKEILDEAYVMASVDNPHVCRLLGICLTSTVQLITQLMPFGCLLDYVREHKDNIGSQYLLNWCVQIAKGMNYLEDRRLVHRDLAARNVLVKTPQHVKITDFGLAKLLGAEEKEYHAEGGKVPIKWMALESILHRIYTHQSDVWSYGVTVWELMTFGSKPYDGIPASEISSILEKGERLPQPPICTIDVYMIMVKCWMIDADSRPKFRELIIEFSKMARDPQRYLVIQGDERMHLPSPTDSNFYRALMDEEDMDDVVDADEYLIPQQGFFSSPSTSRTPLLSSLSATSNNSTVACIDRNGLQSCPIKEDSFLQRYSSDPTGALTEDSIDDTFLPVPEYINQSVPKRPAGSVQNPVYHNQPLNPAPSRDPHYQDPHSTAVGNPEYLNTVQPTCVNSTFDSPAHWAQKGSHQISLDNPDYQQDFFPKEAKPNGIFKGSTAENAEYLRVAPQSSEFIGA

[9] = target: Casein kinase II subunit alpha' (Homo sapiens) (UniProt P19784); assay: Selectivity interaction (Kinase panel (DSF assay)) EUB0001558a CSNK2A2
Casein kinase II subunit alpha' (Homo sapiens), sequence (P19784 whole entry, looked up): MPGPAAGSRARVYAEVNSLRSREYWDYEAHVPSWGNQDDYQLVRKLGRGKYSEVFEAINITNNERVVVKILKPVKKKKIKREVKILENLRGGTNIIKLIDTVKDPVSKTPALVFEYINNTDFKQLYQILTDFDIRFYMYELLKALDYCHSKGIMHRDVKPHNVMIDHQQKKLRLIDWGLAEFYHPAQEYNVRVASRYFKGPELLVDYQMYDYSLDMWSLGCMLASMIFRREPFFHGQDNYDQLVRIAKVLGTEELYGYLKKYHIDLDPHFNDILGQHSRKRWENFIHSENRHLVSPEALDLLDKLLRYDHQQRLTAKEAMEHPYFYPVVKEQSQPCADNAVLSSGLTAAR

[10] = target: Ribosomal protein S6 kinase alpha-5 (Homo sapiens) (UniProt O75582); assay: Selectivity interaction (KinomeScan (DiscoverX)) EUB0000655a RPS6KA5; conditions: at 10 µM
Ribosomal protein S6 kinase alpha-5 (Homo sapiens), sequence (O75582 whole entry, looked up): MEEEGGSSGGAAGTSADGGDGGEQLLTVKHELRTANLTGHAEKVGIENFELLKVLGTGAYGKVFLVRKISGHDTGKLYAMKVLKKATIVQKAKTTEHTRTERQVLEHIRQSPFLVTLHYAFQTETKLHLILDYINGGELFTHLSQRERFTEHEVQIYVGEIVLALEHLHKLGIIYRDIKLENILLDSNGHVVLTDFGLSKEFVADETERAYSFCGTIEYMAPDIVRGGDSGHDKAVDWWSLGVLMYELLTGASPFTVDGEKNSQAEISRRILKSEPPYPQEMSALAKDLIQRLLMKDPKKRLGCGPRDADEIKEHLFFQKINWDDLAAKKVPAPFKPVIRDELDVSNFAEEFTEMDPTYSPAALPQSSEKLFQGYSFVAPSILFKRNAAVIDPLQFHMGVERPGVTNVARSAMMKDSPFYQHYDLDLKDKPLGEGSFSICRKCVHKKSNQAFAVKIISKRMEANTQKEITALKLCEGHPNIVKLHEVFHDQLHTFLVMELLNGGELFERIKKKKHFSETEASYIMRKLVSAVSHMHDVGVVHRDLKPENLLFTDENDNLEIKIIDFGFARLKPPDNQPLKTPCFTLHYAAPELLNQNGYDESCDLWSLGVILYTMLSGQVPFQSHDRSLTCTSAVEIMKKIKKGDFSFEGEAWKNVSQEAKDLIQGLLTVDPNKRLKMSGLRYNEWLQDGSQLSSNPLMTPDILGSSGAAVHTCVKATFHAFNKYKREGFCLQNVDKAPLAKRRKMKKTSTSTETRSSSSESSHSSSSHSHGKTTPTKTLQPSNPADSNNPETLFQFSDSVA

[11] = target: T1, Non-receptor tyrosine-protein kinase TNK1 (Homo sapiens) (UniProt Q13470); assay: Selectivity interaction (Kinase panel (Carna Biosciences)) EUB0001542aTs TNK1; conditions: at 1 µM
T1 sequence (whole entry): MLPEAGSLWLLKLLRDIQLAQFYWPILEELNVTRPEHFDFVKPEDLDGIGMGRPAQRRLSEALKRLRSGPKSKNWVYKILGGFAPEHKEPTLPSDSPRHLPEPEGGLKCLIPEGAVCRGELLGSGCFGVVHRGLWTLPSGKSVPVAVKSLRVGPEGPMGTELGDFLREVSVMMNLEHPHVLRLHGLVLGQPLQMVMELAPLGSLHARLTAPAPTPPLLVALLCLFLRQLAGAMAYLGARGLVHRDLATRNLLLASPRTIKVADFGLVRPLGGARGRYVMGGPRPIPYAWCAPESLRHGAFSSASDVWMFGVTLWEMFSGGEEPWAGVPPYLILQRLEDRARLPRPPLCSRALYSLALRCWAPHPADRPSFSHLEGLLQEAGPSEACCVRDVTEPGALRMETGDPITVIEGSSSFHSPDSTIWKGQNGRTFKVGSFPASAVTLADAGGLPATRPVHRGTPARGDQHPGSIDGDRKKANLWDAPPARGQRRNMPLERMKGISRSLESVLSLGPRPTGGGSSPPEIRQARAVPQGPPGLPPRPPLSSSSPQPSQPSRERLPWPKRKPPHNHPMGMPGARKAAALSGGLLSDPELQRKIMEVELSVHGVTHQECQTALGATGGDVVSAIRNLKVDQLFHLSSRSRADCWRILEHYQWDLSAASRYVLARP

[12] = target: T2, Dual specificity mitogen-activated protein kinase kinase 7 (Homo sapiens) (UniProt O14733); conditions: at 10 µM
T2 sequence (whole entry): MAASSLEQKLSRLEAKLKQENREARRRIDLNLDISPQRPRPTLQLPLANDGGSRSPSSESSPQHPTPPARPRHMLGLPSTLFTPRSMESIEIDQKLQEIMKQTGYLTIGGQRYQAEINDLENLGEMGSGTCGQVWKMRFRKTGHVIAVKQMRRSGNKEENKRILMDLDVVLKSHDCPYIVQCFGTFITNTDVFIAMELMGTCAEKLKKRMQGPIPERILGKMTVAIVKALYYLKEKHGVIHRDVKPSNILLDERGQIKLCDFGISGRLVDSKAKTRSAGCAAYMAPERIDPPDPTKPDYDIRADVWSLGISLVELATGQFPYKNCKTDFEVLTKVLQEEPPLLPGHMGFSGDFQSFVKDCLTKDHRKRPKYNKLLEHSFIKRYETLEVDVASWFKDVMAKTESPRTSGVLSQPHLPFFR

[13] = target: T3, NUAK family SNF1-like kinase 2 (Homo sapiens) (UniProt Q9H093); assay: Selectivity interaction (KinomeScan (DiscoverX)) EUB0001619a NUAK2; conditions: at 1 µM
T3 sequence (whole entry): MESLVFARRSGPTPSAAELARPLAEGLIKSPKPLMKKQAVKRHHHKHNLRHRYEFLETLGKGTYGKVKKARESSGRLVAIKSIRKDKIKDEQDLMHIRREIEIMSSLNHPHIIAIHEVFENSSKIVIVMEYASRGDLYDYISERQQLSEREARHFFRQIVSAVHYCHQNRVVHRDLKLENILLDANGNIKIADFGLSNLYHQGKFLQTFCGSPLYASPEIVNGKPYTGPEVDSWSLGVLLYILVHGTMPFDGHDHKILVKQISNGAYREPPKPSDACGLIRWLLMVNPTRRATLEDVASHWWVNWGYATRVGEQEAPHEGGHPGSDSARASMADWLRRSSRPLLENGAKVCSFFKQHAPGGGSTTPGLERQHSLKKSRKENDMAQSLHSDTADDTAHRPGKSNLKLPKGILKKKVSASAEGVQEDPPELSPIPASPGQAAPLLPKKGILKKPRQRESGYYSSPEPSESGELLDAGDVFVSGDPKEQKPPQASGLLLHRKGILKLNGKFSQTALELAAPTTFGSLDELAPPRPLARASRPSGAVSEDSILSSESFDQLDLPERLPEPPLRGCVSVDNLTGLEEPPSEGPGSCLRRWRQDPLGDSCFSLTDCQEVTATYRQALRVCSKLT

SMILES: Cn1cc(-n2cnc3c(NCc4nc5cc(Cl)c(Cl)cc5[nH]4)nc(N4CCOCC4)nc32)cn1
- % of inhibition [1]: 37.1%

SMILES: CC[C@@H]1[C@H](F)C(=O)N[C@@H]1COc1nccc2cc(C(N)=O)c(OC)cc12 [ZIMLOVISERTIB]
- % of inhibition [2]: -5.4%

SMILES: Cc1cc(F)c(C(=O)Nc2cccc(-c3nncn3C(C)C)n2)cc1-n1cnc(C2CC2)c1
- % of control [3]: 83%

SMILES: COCC(=O)NC/C=C/c1ccc2ncnc(Nc3ccc(Oc4ccc(C)nc4)c(C)c3)c2c1 [CP-724714]
- % of control [4]: 25%

SMILES: COc1cc(Nc2nc(C)cc(-c3cnn4nc(OC)ccc34)n2)cc(C(F)(F)F)c1
- % of control [5]: 100%

SMILES: Cc1cnc(Nc2ccc(F)cc2Cl)nc1-c1c[nH]c(C(=O)N[C@H](CO)c2cccc(Cl)c2)c1
- % of inhibition [6]: 0%

SMILES: CC(=O)Nc1cccc(-n2c(=O)n(C3CC3)c(=O)c3c(Nc4ccc(I)cc4F)n(C)c(=O)c(C)c32)c1
- % of control [7]: 105%

SMILES: CN(C)C/C=C/C(=O)Nc1ccc(C(=O)N2CCCC(Nc3ncc(Cl)c(-c4c[nH]c5ccccc45)n3)C2)cc1 (stereo not drawn)
- % of control [8]: 91%

SMILES: CC(C)(O)[C@H](F)CN1Cc2cc(NC(=O)c3cnn4cccnc34)c(N3CCOCC3)cc2C1=O
- dTM [9]: 0.1 K

SMILES: CN(C)CCOc1ccc(-c2nc(-c3ccncc3)c(-c3ccc4c(c3)CC/C4=N\O)[nH]2)cc1
- % of control [10]: 90%

SMILES: Cn1cc(Nc2nccc(N3CC4CCC(C3)N4C(=O)[C@@H]3CC3(F)F)n2)cn1
- % of inhibition [11]: 94%

SMILES: Cc1cc([C@@H](C)Nc2ccccc2C(=O)O)c2nc(N3CCOCC3)cc(=O)n2c1 [AZD-6482]
- % of control [12]: 90%

SMILES: N#Cc1cccc(-c2c[nH]c3ncnc(N4CCOCC4)c23)c1
- % of control [13]: 18%
